Results published in ChEMBL document CHEMBL1121376, “Antihypertensive (2-aminoethyl)thiourea derivatives. 2” (1980).
Calls of active or inactive are those of the source. The calls are words filed in the database; no cut-off is given here.

Key:
Rattus norvegicus [1] = assay: Evaluation of antihypertensive activity in DOCA/salt hypertensive rats at peroral dose of 10 mg/kg; no effect on HR; Inactive; assay type: functional, organism-based; design: dose 10 mg/kg
Canis familiaris [2] = assay: Evaluation of antihypertensive activity renally hypertensive dog at dose 10,30,100mg/kg(po); Inactive; assay type: functional, organism-based; conditions: Canis lupus familiaris
Rattus norvegicus [3] = assay: Evaluation of antihypertensive activity in DOCA/salt hypertensive rats at peroral dose of 10,30,100 mg /kg; value ranges from 12-20%; assay type: functional
Canis familiaris [4] = assay: Evaluation of antihypertensive activity renally hypertensive dog at dose 10 mg/kg; assay type: functional, Canis lupus familiaris
Rattus norvegicus [5] = assay: Evaluation of decrease in heart rate (antihypertensive activity) in spontaneously hypertensive rats after 3-6h 0f peroral dose of 100 mg /kg; assay type: functional
Rattus norvegicus [6] = assay: Evaluation of antihypertensive activity in spontaneously hypertensive rats at peroral dose of 10, 30,100 mg /kg; assay type: functional

## NCC/N=C(\S)Nc1c(Cl)cccc1Cl
Rattus norvegicus [1]
  Reduction in arterial blood pressure: inactive
Canis familiaris [2]
  Reduction in arterial blood pressure: inactive
Rattus norvegicus [3]
  Decrease in blood pressure: 12%
Canis familiaris [4]
  Reduction in arterial blood pressure: 7%
Rattus norvegicus [5]
  Reduction in heart rate: 12.7%
Rattus norvegicus [6]
  Reduction in blood pressure: 12.7%
